Reference: publication PMC9138991, “Effect of Trimethine Cyanine Dye- and Folate-Conjugation on the In Vitro Biological Activity of Proapoptotic Peptides” (Biomolecules, 2022)
Where a SMILES comes first, the peptide text is derived from it. Side-chain parts run from the residue outwards. [ ]: non-standard residue; d: D form. The star is where a group is joined. X1 = CN1/C(=C\C=C\C2=[N+](CCCCCC(=O)*)c3ccccc3C2(C)C)C(C)(C)c2ccccc21; Pteroyl = Nc1nc2ncc(CNc3ccc(C(=O)*)cc3)nc2c(=O)[nH]1; Cha = N[C@@H](CC1CCCCC1)C(=O)O; dCha = N[C@H](CC1CCCCC1)C(=O)O

Tests used:
Assay type in all cases: cell-based, human
[1] = tested on: KB cells; experiment: Cell viability assay (CellTiter-Blue), KB cells; details: 7 × 10^3 cells per well, folic acid-depleted RPMI-1640 + 10% FBS, 1% DMSO, 24 h at 37 °C, then CellTiter-Blue 4 h, three biological replicates fitted in Origin, standard error in brackets
Experimental: (§1) KB and MCF7 cells were kindly gifted by Prof. Arwyn T. Jones (Cardiff University), HEK293 cells were purchased from Public Health England, and SK-OV-3 cells were purchased from National Collection of Authenticated Cell Cultures (https://cell-bank.org.cn/). Cells were routinely tested for mycoplasma infection. KB and SK-OV-3 cells were maintained in T75 flasks at 37 °C in a 5% CO2 atmosphere in folic acid-depleted Roswell Park Memorial Institute (RPMI)-1640 medium supplemented with 10% (v/v) fetal bovine serum (FBS). MCF7 and HEK293 cells were maintained in T75 flasks at 37 °C in a 5% CO2 atmosphere in Dulbecco’s Modified Eagle’s medium (DMEM) supplemented with 10% (v/v) FBS. Cells were maintained at a sub-confluent monolayer and split at 80–85% confluency. For splitting, cells were washed with PBS, trypsinized in 1 mL of trypsin, and 200 µL of the 1000 µL trypsin cell suspension was re-suspended in 12 mL fresh DMEM containing 10% (v/v) FBS in a new T75 flask. KB and SK-OV-3 cells were used for biological experiments after being maintained for at least 10 days in folic acid-depleted RPMI-1640 medium.
(§2) SK-OV-3, MCF7, and HEK293 cells were seeded at a density of 2 × 10^4 cells per well in a Nunc™ MicroWell™ 96-well plate and grown at 37 °C in a 5% CO2 atmosphere in DMEM supplemented with 10% (v/v) FBS for 24 h. KB cells were seeded at a density of 7 × 10^3 cells per well in a 96-well plate and grown at 37 °C in a 5% CO2 atmosphere in folic acid-depleted RPMI-1640 medium supplemented with 10% (v/v) FBS for 24 h. Stock solutions of compounds 2–6 and 11–13 were obtained by dissolving the compounds in sterile deionized water. Compounds 1, and 7–10 were dissolved in pure DMSO. The stock solutions were diluted into the proper medium (according to the cell line tested) supplemented with 10% FBS to the appropriate concentration, and cells in each well were incubated with 100 µL of the solution. The solutions in each well were then adjusted to a concentration of 1% (v/v) DMSO. After 24 h at 37 °C, 20 µL of CellTiter-Blue™ was added to each well. The plate was incubated for another 4 h at 37 °C before analysis on a Perkin Elmer Victor X plate reader (excitation 531 nm; emission 595 nm). Each data point was calculated from a minimum of nine values resulting from three biological replicates (i.e., cells split from three different passages); each biological replicate is calculated from three technical replicates (i.e., cells split from the same passage). Value from media-only with CellTiter-Blue™ was set at 0% viability. This value was then subtracted from the values from cell-only (i.e., non-treated) wells with CellTiter-Blue™ in each biological replicate and set as 100% viability. For treatments of Cy3-containing compounds, blanks were generated with cell-free wells containing the compounds incubated for 24 h before addition of CellTiter-Blue™. The fluorescent reading for these wells was deducted from the treatment readings. Dose-response fitting curves were generated using Origin, version 2019b, OriginLab Corporation, Northampton, MA, USA (Figures S21–S24, Supplementary Materials).
(§3) Comparison of cytotoxicity fitting curves was achieved by applying the extra sum-of-squares F test, performed using GraphPad Prism version 9 for Windows, GraphPad Software, La Jolla, California, USA (https://www.graphpad.com/). […] Statistical analysis on the flow cytometry data was achieved by applying the unpaired two-tailed t-test test, performed using GraphPad Prism version 9 for Windows, GraphPad Software, La Jolla California USA, USA (https://www.graphpad.com/).
(§4) Cytotoxicity of 1–13 was evaluated using the CellTiter-Blue assay on KB, MCF7, SK-OV-3, and HEK293 cells. KB cells are derived from human cervical cancer, while SK-OV-3 cells are derived from human ovarian cancer. […] This feature is of particular relevance in anticancer applications, as it can be exploited for selective targeting and delivery. […]

[2] = tested on: HEK293 cells; experiment: Cell viability assay (CellTiter-Blue), HEK293 cells; details: 2 × 10^4 cells per well, DMEM + 10% FBS, 1% DMSO, 24 h at 37 °C, then CellTiter-Blue 4 h, three biological replicates fitted in Origin, standard error in brackets
Experimental: as §1, §2, §3, §4

[3] = tested on: MCF7 cells; experiment: Cell viability assay (CellTiter-Blue), MCF7 cells; details: MCF7 cells, 2 × 10^4 cells per well, DMEM + 10% FBS, 1% DMSO, 24 h at 37 °C, then CellTiter-Blue 4 h; three biological replicates fitted in Origin, standard error in brackets
Experimental: as §1, §2, §3, §4

[4] = tested on: SK-OV-3 cells; experiment: Cell viability assay (CellTiter-Blue), SK-OV-3 cells; details: 2 × 10^4 cells per well, medium + 10% FBS, 1% DMSO, 24 h at 37 °C, then CellTiter-Blue 4 h, three biological replicates fitted in Origin, standard error in brackets
Experimental: as §1, §2, §3, §4

[5] = tested on: KB, MCF7, SK-OV-3, and HEK293 cells; experiment: Cell viability assay (CellTiter-Blue), statements over all tested cell lines; details: for Selectivity of cytotoxicity between cell lines, in words: folate receptor α-high KB and SK-OV-3 versus MCF7 and HEK293
Experimental: as §2, §3
Cytotoxicity of 1–13 was evaluated using the CellTiter-Blue assay on KB, MCF7, SK-OV-3, and HEK293 cells. KB cells are derived from human cervical cancer, while SK-OV-3 cells are derived from human ovarian cancer. […] This feature is of particular relevance in anticancer applications, as it can be exploited for selective targeting and delivery. MCF7 is a cell line derived from human breast cancer with low levels of folate receptor α [27]. Therefore, it can serve as the negative control for folate receptor α mediated tumor-targeted drug delivery systems. HEK293 is a non-cancer cell line and was chosen to evaluate the specificity of the tested compounds toward cancer cells.

[6] = tested on: mitochondria of SK-OV-3 cells; experiment: Confocal microscopy, colocalisation with MitoTracker Green FM, SK-OV-3 cells; details: 10 µM conjugate, 10 min at 37 °C; for Pearson's correlation coefficient of MitoTracker Green and Cy3 fluorescence: imaged at 20X; for Pearson's correlation coefficient of MitoTracker Green FM and Cy3 fluorescence: imaged at 63X
Experimental: (§5) SK-OV-3 and MCF7 were seeded at a density of 1 × 10^6 cells per well in glass-bottom culture dishes and grown at 37 °C in a 5% CO2 atmosphere in medium supplemented with 10% (v/v) FBS for 24 h. Cells were washed once with the RPMI-1640 medium supplemented with 10% (v/v) FBS before staining. Compounds 1, 5–10 were diluted into the RPMI-1640 medium supplemented with 10% (v/v) FBS to 10 μM and then added to the culture dishes, respectively. After 10-min incubation at 37 °C, cells were washed with RPMI-1640 medium supplemented with 10% (v/v) FBS. Cells were then treated with 50 nM MitoTracker Green FM and 10 μg/mL Hoechst33258 pre-formulated with RPMI-1640 medium supplemented with 10% (v/v) FBS and then incubated for another 10 min at 37 °C before analysis on ZEISS LSM 900 with Airyscan 2. The results were analyzed using Image J software (Figure 3 and Figures S4–S7 in Supplementary Materials).
(§6) Figure 3 Confocal microscopy images of SK-OV-3 and MCF7 cells treated with Cy3-containing conjugates. Cells were treated with 10 µM of the indicated conjugate for 10 min at 37 °C, washed, stained with 50 nM MitoTracker Green FM and 10 μg/mL Hoechst33258 for 10 min at 37 °C, washed, and imaged at 63X. Pearson’s correlation coefficients of MitoTracker Green FM and Cy3 fluorescence for compounds 1, 5, 6, 7, 8, 9, and 10 in SK-OV-3 and MCF cells are 0.75/0.64, 0.73/0.81, 0.91/0.61, 0.78/0.63, 0.85/0.69, 0.43/0.82, and 0.78/0.60, respectively. Excitation wavelengths for Hoechst33258, MitoTracker Green FM and Cy3 were set as 405, 488, and 561 nm, respectively. Scale bars denote 25 μm. Additional images, including the results of Hoechst33258 staining, are shown in Figure S4 (SK-OV-3 at 20X), Figure S5 (SK-OV-3 at 63X), Figure S6 (MCF7 at 20X) and Figure S7 (MCF7 at 63X), Supplementary Materials.

[7] = tested on: mitochondria of MCF7 cells; experiment: Confocal microscopy, colocalisation with MitoTracker Green FM, MCF7 cells; details: 10 µM conjugate, 10 min at 37 °C; for Pearson's correlation coefficient of MitoTracker Green and Cy3 fluorescence: imaged at 20X; for Pearson's correlation coefficient of MitoTracker Green FM and Cy3 fluorescence: imaged at 63X
Experimental: as §5, §6

Row | Compound | EC50 [1] | EC50 [2] | EC50 [3] | EC50 [4] | Selectivity of cytotoxicity between cell lines, in words [5] | EC50 ([5]; KB, SK-OV-3, MCF7 and HEK293 cells, CellTiter-Blue, 24 h) | Potency (cytotoxicity) in the tested cell lines, in words ([5]; KB, SK-OV-3, MCF7 and HEK293 cells, CellTiter-Blue, extra sum-of-squares F test) | Pearson's correlation coefficient of MitoTracker Green and Cy3 fluorescence [6] | Pearson's correlation coefficient of MitoTracker Green FM and Cy3 fluorescence [6] | Pearson's correlation coefficient of MitoTracker Green and Cy3 fluorescence [7] | Pearson's correlation coefficient of MitoTracker Green FM and Cy3 fluorescence [7]
1 | CC(=O)N[C@@H](CCCCNC(=O)[C@H](CCC(=O)O)NC(=O)c1ccc(NCc2cnc3nc(N)nc(O)c3n2)cc1)C(=O)N[C@H](CCCCN)C(=O)N[C@H](CC(C)C)C(=O)N[C@H](C)C(=O)N[C@H](CCCCN)C(=O)N[C@H](CC(C)C)C(=O)N[C@H](C)C(=O)N[C@H](CCCCN)C(=O)N[C@H](CCCCN)C(=O)N[C@H](CC(C)C)C(=O)N[C@H](C)C(=O)N[C@H](CCCCN)C(=O)N[C@H](CC(C)C)C(=O)N[C@H](C)C(=O)N[C@H](CCCCN)C(N)=O [Compound 12] | 151 µM | > 400 µM | > 400 µM | 388 µM | enhanced toxicity in KB but not in SK-OV-3 cells when compared to MCF7 and HEK293 cells | – | – | – | – | – | –
2 | CC(C)C[C@@H](NC(=O)[C@H](N)CCCCN)C(=O)N[C@H](C)C(=O)N[C@H](CCCCN)C(=O)N[C@H](CC(C)C)C(=O)N[C@H](C)C(=O)N[C@H](CCCCN)C(=O)N[C@H](CCCCN)C(=O)N[C@H](CC(C)C)C(=O)N[C@H](C)C(=O)N[C@H](CCCCN)C(=O)N[C@H](CC(C)C)C(=O)N[C@H](C)C(=O)N[C@H](CCCCN)C(N)=O [Compound 3, reference compound] | 331 µM | > 400 µM | > 400 µM | > 400 µM | – | > 300 µM | least potent amongst the tested compounds | – | – | – | –
3 | CC(=O)N[C@@H](CCCCNC(=O)[C@H](CCC(=O)O)NC(=O)c1ccc(NCc2cnc3nc(N)nc(O)c3n2)cc1)C(=O)N[C@@H](CCCCN)C(=O)N[C@@H](CC(C)C)C(=O)N[C@@H](C)C(=O)N[C@@H](CCCCN)C(=O)N[C@@H](CC(C)C)C(=O)N[C@@H](C)C(=O)N[C@@H](CCCCN)C(=O)N[C@@H](CCCCN)C(=O)N[C@@H](CC(C)C)C(=O)N[C@@H](C)C(=O)N[C@@H](CCCCN)C(=O)N[C@@H](CC(C)C)C(=O)N[C@@H](C)C(=O)N[C@@H](CCCCN)C(N)=O [Compound 11] | 242 µM | > 400 µM | > 400 µM | > 400 µM | enhanced toxicity in KB but not in SK-OV-3 cells when compared to MCF7 and HEK293 cells | – | – | – | – | – | –
4 | C[C@@H](NC(=O)[C@H](CC1CCCCC1)NC(=O)[C@@H](CCCCN)NC(=O)[C@@H](C)NC(=O)[C@@H](CC1CCCCC1)NC(=O)[C@@H](CCCCN)NC(=O)[C@H](CCCCNC(=O)[C@H](CCC(=O)O)NC(=O)c1ccc(NCc2cnc3nc(N)nc(O)c3n2)cc1)NC(=O)CCCCC[N+]1=C(/C=C/C=C2\N(C)c3ccccc3C2(C)C)C(C)(C)c2ccccc21)C(=O)N[C@H](CCCCN)C(=O)N[C@H](CCCCN)C(=O)N[C@@H](CC1CCCCC1)C(=O)N[C@H](C)C(=O)N[C@H](CCCCN)C(=O)N[C@H](CC1CCCCC1)C(=O)N[C@H](C)C(=O)N[C@H](CCCCN)C(N)=O [Compound 10] (X1-K([Glu-Pteroyl])[dK][dCha][dA][dK][Cha][dA][dK][dK][Cha][dA][dK][dCha][dA][dK]-NH2) | 3.4 µM | 6.8 µM | 6.9 µM | 6 µM | – | – | – | 0.79 | 0.78 | 0.68 | 0.60
5 | CC(C)C[C@@H](NC(=O)[C@@H](CCCCN)NC(=O)CCCCC[N+]1=C(/C=C/C=C2\N(C)c3ccccc3C2(C)C)C(C)(C)c2ccccc21)C(=O)N[C@H](C)C(=O)N[C@H](CCCCN)C(=O)N[C@H](CC(C)C)C(=O)N[C@H](C)C(=O)N[C@H](CCCCN)C(=O)N[C@H](CCCCN)C(=O)N[C@H](CC(C)C)C(=O)N[C@H](C)C(=O)N[C@H](CCCCN)C(=O)N[C@H](CC(C)C)C(=O)N[C@H](C)C(=O)N[C@H](CCCCN)C(N)=O [Compound 6] | 3.5 µM | 5.3 µM | 5.7 µM | 6.39 µM | – | – | – | 0.74 | 0.91 | 0.81 | 0.61
